Results published in PubChem BioAssay (NCI).
Values joined by “and” are separate entries in the source; they are usually repeats but may differ in a detail not shown here. Equal entries are not always repeated.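 Values below derive from 48-hour exposures of cells grown in 96-well plates, with endpoints linearly interpolated between the two concentrations bracketing the appropriate inhibition level. Abbreviation: GI50, concentration required for 50% inhibition of growth. TGI is the concentration that stops growth completely.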

Experiments:
Experiment in all cases: NCI-60 cell line screen, 48 h
[1] = tested on: BT-549 breast
[2] = tested on: CAKI-1 renal
[3] = tested on: COLO 205 colon
[4] = tested on: HOP-92 NSCLC
[5] = tested on: KM12 colon
[6] = tested on: M14 melanoma
[7] = tested on: NCI/ADR-RES ovarian
[8] = tested on: SK-MEL-28 melanoma
[9] = tested on: SK-MEL-5 melanoma
[10] = tested on: SN12C renal
[11] = tested on: UACC-257 melanoma
[12] = tested on: SF-268 CNS

Compound | TGI [1] [µM] | TGI [2] | TGI [3] | TGI [4] | TGI [5] | TGI [6] | TGI [7] [µM] | TGI [8] | TGI [9] | TGI [10] | TGI [11] | TGI [12] | GI50 [9] | GI50 [11]
CC(=O)Nc1ccc2[nH]c(-c3cccc(F)c3)cc(=O)c2c1 | > 100 | > 100 µM | > 65.5 µM | > 55.1 µM | > 100 µM | > 100 µM | 21.2 | > 100 µM | 27.8 µM | > 100 µM | > 100 µM |  |  | 
Nc1nc(Cl)cc(Nc2cc(Cl)cc(Cl)c2)n1 | 45.4 | 48.2 µM | 41.4 µM | 40.3 µM | 37.7 µM | 35.4 µM | 44 |  | 33.9 µM | 40.7 µM | 32.8 µM | 40.4 µM |  | 
COc1cccc(-c2cc(=O)c3c(C)ccnc3[nH]2)c1 | > 100 |  | 0.0854 µM |  | 1.49 µM | > 100 µM |  |  | 3.71 µM | > 100 µM |  | > 100 µM |  | 
C1=C\CCCCN2C[C@H]3CCCC/C=C\CCCCN4CC[C@@H]([C@H](CCCCCC/1)C4)[C@H](C3)C2 | 19.1 | 5.6 µM | 4.03 µM | > 20.2 µM | 4.03 µM |  | 9.89 | 3.89 µM | 3.12 µM | 22.9 µM | 3.28 µM | 5.74 µM |  | 
O=[N+]([O-])c1cccnc1NCC1(CO)CC(Cc2ccccc2)C1 (centres undefined) | > 100 | > 100 µM | > 100 µM | 60.1 µM | > 100 µM |  | > 100 | > 100 µM | > 100 µM | > 100 µM | > 100 µM | > 100 µM |  | 
COC(=O)c1csc(-c2nc(CCNC(=O)OC(C)(C)C)sc2Br)n1 | > 100 |  | > 100 µM |  | > 100 µM | > 100 µM | > 100 | > 100 µM | > 100 µM | > 100 µM | > 100 µM | > 100 µM |  | 
COc1ccc(C2S/C(=C\c3ccc(O)cc3)C(=O)N2NC(=O)Cc2ccccc2)cc1 (centres undefined) |  | > 100 µM | > 100 µM | > 100 µM | > 100 µM | > 100 µM |  | > 100 µM | > 100 µM | > 100 µM | > 100 µM | > 100 µM |  | 
COCc1cc2c(cc1/C=C/[N+](=O)[O-])OCO2 |  | 34.2 µM | 38.4 µM | 36.8 µM | 35.8 µM | 30.6 µM | 47 | 25.2 µM | 37.6 µM | 34 µM | 30.8 µM | 40.4 µM |  | 
CC[C@H]1OC([C@H](O)C/C=C\C#C[Si](C)(C)C)C/C=C\C[C@H]1O[Si](C)(C)C(C)(C)C (some centres undefined) | > 100 | > 100 µM | > 100 µM |  | > 100 µM | > 100 µM | > 100 | > 100 µM | > 100 µM | > 100 µM |  | > 100 µM |  | 
CC(C)=CCSC1CC2C(CC1(C)O)C2(C)C (centres undefined) |  | 28.3 µM and 25.5 µM | 32.5 µM and 30.8 µM | 30.4 µM and 27 µM | 35.7 µM and 27.7 µM | 32 µM and 27.9 µM |  | 31.3 µM and 30.7 µM | 28.5 µM and 20.1 µM | 32 µM and 29.6 µM | 32.6 µM and 20.6 µM | 34.9 µM and 29.8 µM | 14.7 µM and 6.59 µM | 18.3 µM and 7.13 µM
N/C(=N/n1c(=S)[nH]c2ccccc2c1=O)Nn1c(=S)[nH]c2ccccc2c1=O | 55.4 | 26.3 µM | 77.6 µM |  | > 100 µM | 23.8 µM | > 100 | 72.6 µM | > 100 µM |  | > 100 µM | 56.8 µM |  | 
CC1C[C@]2(C)C(=O)N(c3ccccc3)C(=N)[C@@H]2N(C)c2ccccc21 (some centres undefined) |  | > 100 µM | > 100 µM |  | > 100 µM | > 100 µM | > 100 | > 100 µM | > 100 µM | > 100 µM | > 100 µM | > 100 µM |  | 
C(=C\C(SCc1ccccc1)SCc1ccccc1)/c1ccccc1 |  | > 10 µM | > 10 µM | > 10 µM | > 10 µM | > 10 µM | > 10 | > 10 µM | > 10 µM | > 10 µM | > 10 µM | > 10 µM |  | 
CCCCOC(=O)C(O)Cc1ccoc1 (centres undefined) | > 100 |  | > 100 µM |  | > 100 µM | > 100 µM | > 100 | > 100 µM | > 100 µM | > 100 µM |  | > 100 µM |  | 
C[C@H](O)C1CC(Cn2nnc3c(N)ncnc32)C1(C)C (some centres undefined) |  | > 100 µM |  | > 100 µM | > 100 µM | > 100 µM | > 100 | > 100 µM | > 100 µM | > 100 µM | > 100 µM | > 100 µM |  | 
O=c1[nH]nc(Cc2ccccc2)n1Nc1ccccc1 | > 100 | > 100 µM | > 100 µM |  | > 100 µM |  | > 100 | > 100 µM | > 100 µM | > 100 µM | > 100 µM | > 100 µM |  | 
COc1ccc(CC2NC(=O)/C=C/CC(C(C)C3OC3c3ccccc3)OC(=O)C(CC(C)C)OC(=O)C(C)CNC2=O)cc1Cl (centres undefined) |  | > 0.1 µM | 2.12e-05 µM | > 0.1 µM | > 0.1 µM | 0.00141 µM |  | > 0.1 µM | 0.000657 µM | > 0.1 µM | > 0.1 µM | > 0.1 µM |  | 
Cc1nc2c(sc3nc4ccccc4n32)c(=O)[nH]1 | > 100 | > 100 µM | > 100 µM | > 100 µM | > 100 µM | > 100 µM | > 100 | > 100 µM | > 100 µM |  | > 100 µM | > 100 µM |  | 
CCOC(=O)C(NC(=O)Nc1ccc(Cl)c(Cl)c1)C(F)(F)F (centres undefined) | > 100 |  | > 100 µM |  |  | > 100 µM | > 100 | > 100 µM | > 100 µM | > 100 µM | > 100 µM | > 100 µM |  | 
O[C@@H]1C[C@@H]2N[C@@](O)(C[C@@H]2O)[C@H]1O |  |  | > 100 µM | > 100 µM | > 100 µM | > 100 µM | > 100 | > 100 µM | > 100 µM | > 100 µM | > 100 µM | > 100 µM |  | 
CC(=O)OCC1=C(C)C(OC(=O)C(OC(C)=O)[C@@H](NC(=O)c2ccccc2)c2ccccc2)CCC1(C)C (some centres undefined) | > 100 | > 100 µM | > 100 µM |  | > 100 µM |  | > 100 | > 100 µM | > 100 µM | > 100 µM | > 100 µM | > 100 µM |  | 
